From US11976083B2, “Inhibitors of peptidylarginine deiminases” (Gilead Sciences, Inc., priority 2020, dated 2024)

Target: T1, human PAD4 (Homo sapiens, UniProt Q9UM07)
T1 construct: human PAD4 (NM_012387), A2-P663, was PCR amplified; His-SUMO (N, cleaved yes); made in house; host or cells: E. coli BL21(DE3)
Assay: In vitro PAD4 BAEE biochemical assay
Conditions: BAEE substrate 3 mM, 5 nM PAD4, 2 mM calcium chloride; geometric mean of multiple experiments
Summary of the method: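 Ammonia produced by BAEE deimination (3 mM substrate, 2 h, 25 °C) was read as fluorescent isoindole after o-phthalaldehyde/DTT derivatization, ex 405 nm/em 535 nm. Human PAD4 at 5 nM final, 2 mM calcium, pH 7.6 MOPS; compound preincubated 30 min. IC50s, normalized to BB-Cl-Amidine and DMSO controls, were geometric-mean averaged.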

T1 sequence (Q9UM07 2-663): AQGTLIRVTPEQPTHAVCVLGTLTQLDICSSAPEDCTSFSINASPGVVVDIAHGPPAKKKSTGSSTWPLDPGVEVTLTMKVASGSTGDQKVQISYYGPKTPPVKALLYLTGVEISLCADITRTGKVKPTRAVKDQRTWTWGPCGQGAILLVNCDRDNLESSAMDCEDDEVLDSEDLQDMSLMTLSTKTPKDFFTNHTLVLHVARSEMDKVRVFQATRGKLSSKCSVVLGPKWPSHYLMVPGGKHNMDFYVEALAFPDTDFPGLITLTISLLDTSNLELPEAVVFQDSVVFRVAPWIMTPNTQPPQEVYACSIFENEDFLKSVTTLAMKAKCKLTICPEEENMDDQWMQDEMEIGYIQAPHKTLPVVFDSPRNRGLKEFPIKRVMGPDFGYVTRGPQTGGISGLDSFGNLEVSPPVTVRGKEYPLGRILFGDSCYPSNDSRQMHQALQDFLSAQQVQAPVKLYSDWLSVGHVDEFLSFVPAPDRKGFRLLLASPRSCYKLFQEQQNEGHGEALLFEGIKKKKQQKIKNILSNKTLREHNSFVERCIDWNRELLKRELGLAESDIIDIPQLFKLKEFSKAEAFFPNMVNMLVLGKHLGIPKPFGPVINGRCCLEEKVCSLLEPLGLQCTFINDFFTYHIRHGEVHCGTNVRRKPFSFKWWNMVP

SMILES	IC50 [nM]
C[C@H]1NC(=O)c2ccc(Cl)nc2CCCCCn2c(-c3nc4cc(C(=O)N5C[C@H](N)[C@@H]6CC[C@H]5C6)cc(OC(F)(F)F)c4n3C)cc3ccc1nc32 [Example 714, (2~{R})-17-[5-[(1~{S},4~{R}, 5~{R})-4-amino-2-azabicyclo [3.2.1]octane-2-carbonyl]-1-methyl-7-(trifluoromethoxy)benzimidazol-2-yl]-8-chloro-2-methyl-3,9,16,22-tetrazatetracyclo[14.5.2.0^ {5,10).0^{19,23}]tricosa-1(22), 5(10),6,8,17,19(23),20-heptaen-4-one]	40
C[C@H]1NC(=O)[C@@H]2C[C@@]2(F)CCCCCn2c(-c3nc4cc(C(=O)N5C[C@H](N)[C@@H]6CC[C@H]5C6)cc(OC(F)(F)F)c4n3C)cc3ccc1nc32 [Example 715, (2~{R},5~{S},7~{S})-14-[5-[(1~{S},4~{R},5~{R})-4-amino-2-azabicyclo[3.2.1]octane-2-carbonyl]-1-methyl-7-(trifluoromethoxy)benzimidazol-2-yl]-7-fluoro-2-methyl-3,13,19-triazatetracyclo[11.5.2.0^ {5,7}.0^{16,20}]icosa-1(19), 14,16(20),17-tetraen-4-one]	19
COc1cc(C(=O)N2C[C@H](N)[C@@H]3CC[C@H]2C3)cc2nc(-c3cc4ccc5nc4n3CC(F)(F)CCCc3ccccc3C(=O)N[C@@H]5C)n(C)c12 [Example 716, (2~{R})-17-[5-[(1~{S},4~ {R},5~{R})-4-amino-2-azabicyclo[3.2.1]octane-2-carbonyl]-7-methoxy-1-methyl-benzimidazol-2-yl]-14,14-difluoro-2-methyl-3,16,22-triazatetracyclo [14.5.2.0^{5,10}.0^{19,23}] tricosa-1(22),5(10),6,8,17, 19(23),20-heptaen-4-one]	13
C[C@H]1NC(=O)[C@@H]2C[C@@]2(F)CCCCCn2c(-c3nc4cc(C(=O)N5C[C@H](N)[C@@H]6CC[C@H]5C6)cc(F)c4n3C)cc3ccc1nc32 [Example 717, (2~{R},5~{S},7~{S})-14-[5-[(1~{S},4~{R},5~{R})-4-amino-2-azabicyclo[3.2.1]octane-2-carbonyl]-7-fluoro-1-methyl-benzimidazol-2-yl]-7-fluoro-2-methyl-3,13,19-triazatetracyclo [11.5.2.0^{5,7}.0^{16,20}] icosa-1(19),14,16(20), 17-tetraen-4-one]	11
COc1cc(C(=O)N2CC[C@@H](OC)[C@@H](N)C2)cc2nc(-c3cc4ccc5nc4n3CCCCCC[C@@](C)(C(F)(F)F)C(=O)N[C@@H]5C)n(C)c12 [Example 719, (8~{R},11~{R})-17-[5-[(3~{S},4~{R})-3-amino-4-methoxy-piperidine-1-carbonyl]-7-methoxy-1-methyl-benzimidazol-2-yl]-8,11-dimethyl-8-(trifluoromethyl)-1,10,19-triazatricyclo[10.5.2.0^ {15,18}]nonadeca-12(19),13,15(18),16-tetraen-9-one]	91
COc1cc(C(=O)N2CC[C@@H](OC)[C@@H](N)C2)cc2nc(-c3cc4ccc5nc4n3CCCCCC[C@](C)(C(F)(F)F)C(=O)N[C@@H]5C)n(C)c12 [Example 720, (8~{S},11~{R})-17-[5-[(3~ {S},4~{R})-3-amino-4-methoxy-piperidine-1-carbonyl]-7-methoxy-1-methyl-benzimidazol-2-yl]-8,11-dimethyl-8-(trifluoromethyl)-1,10,19-triazatricyclo[10.5.2.0^ {15,18}]nonadeca-12(19),13,15(18),16-tetraen-9-one]	65
COc1cc(C(=O)N2C[C@H]3CC[C@@H]2[C@@H]3N)cc2nc(-c3cc4ccc5nc4n3CCCCCC[C@@](C)(C(F)(F)F)C(=O)N[C@@H]5C)n(C)c12 [Example 722, (8~{R},11~{R})-17-[5-[(1~{R},4~{R},7~{R})-7-amino-2-azabicyclo [2.2.1]heptane-2-carbonyl]-7-methoxy-1-methyl-benzimidazol-2-yl]-8,11-dimethyl-8-(trifluoromethyl)-1,10,19-triazatricyclo [10.5.2.0^{15,18}]nonadeca-12(19),13,15(18),16-tetraen-9-one]	174
COc1cc(C(=O)N2CC[C@@H](OC(F)F)[C@@H](N)C2)cc2nc(-c3cc4ccc5nc4n3CCCCCC[C@@](C)(C(F)(F)F)C(=O)N[C@@H]5C)n(C)c12 [Example 723, (8~{R},11~{R})-17-[5-[(3~ {S},4~{R})-3-amino-4-(difluoromethoxy)piperidine-1-carbonyl]-7-methoxy-1-methyl-benzimidazol-2-yl]-8,11-dimethyl-8-(trifluoromethyl)-1,10,19-triazatricyclo[10.5.2.0^ {15,18}]nonadeca-12(19), 13,15(18),16-tetraen-9-one]	309
COc1cc(C(=O)N2C[C@H]3CC[C@@H]2[C@@H]3N)cc2nc(-c3cc4ccc5nc4n3CCCCCC[C@](C)(C(F)(F)F)C(=O)N[C@@H]5C)n(C)c12 [Example 724, (8~{S},11~{R})-17-[5-[(1~{R},4~{R},7~{R})-7-amino-2-azabicyclo[2.2.1]heptane-2-carbonyl]-7-methoxy-1-methyl-benzimidazol-2-yl]-8,11-dimethyl-8-(trifluoromethyl)-1,10,19-triazatricyclo [10.5.2.0^{15,18}]nonadeca-12(19),13,15(18),16-tetraen-9-one]	94
COc1cc(C(=O)N2CC[C@@H](OC(F)F)[C@@H](N)C2)cc2nc(-c3cc4ccc5nc4n3CCCCCC[C@](C)(C(F)(F)F)C(=O)N[C@@H]5C)n(C)c12 [Example 725, (8~{S},11~{R})-17-[5-[(3~ {S},4~{R})-3-amino-4-(difluoromethoxy)piperidine-1-carbonyl]-7-methoxy-1-methyl-benzimidazol-2-yl]-8,11-dimethyl-8-(trifluoromethyl)-1,10,19-triazatricyclo[10.5.2.0^ {15,18}]nonadeca-12(19),13,15(18),16-tetraen-9-one]	136
COc1cc(C(=O)N2[C@H]3CC[C@@H]2[C@H](N)[C@H](OC)C3)cc2nc(-c3cc4ccc5nc4n3CC(F)(F)CCC[C@@H]3C[C@H]3C(=O)N[C@@H]5C)n(C)c12 [Example 726, (2~{R},5~{R},7~{R})-14-[5-[(1~{R},2~{S},3~{R}, 5~{S})-2-amino-3-methoxy-8-azabicyclo[3.2.1]octane-8-carbonyl]-7-methoxy-1-methyl-benzimidazol-2-yl]-11,11-difluoro-2-methyl-3,13,19-triazatetracyclo[11.5.2.0^ {5,7}.0^{16,20}] icosa-1(19),14,16(20), 17-tetraen-4-one]	23
COc1cc(C(=O)N2CC[C@@H](OC)[C@@H](N)C2)cc2nc(-c3cc4ccc5nc4n3CC(F)(F)CCCC[C@@](C)(C(F)(F)F)C(=O)N[C@@H]5C)n(C)c12 [Example 727, (8~{R},11~{R})-17-[5-[(3~{S), 4~{R})-3-amino-4-methoxy-piperidine-1-carbonyl]-7-methoxy-1-methyl-benzimidazol-2-yl]-3,3-difluoro-8,11-dimethyl-8-(trifluoromethyl)-1,10,19-triazatricyclo[10.5.2.0^ {15,18}]nonadeca-12(19),13,15(18),16-tetraen-9-one]	93
